Results on one compound are retold here after patent publication US20030113330A1, “Methods for treating pulmonary fibrosis” (priority 1999, published 2003).

Entries after “also recorded” stand apart in the source; their conditions may differ.

For one assay, the target named is T1, Caspase 1/ICE (Homo sapiens, UniProt P29466).
T1 construct: endogenous in cells; host or cells: A549 human lung epithelial cell line
T1 sequence (P29466 120-404): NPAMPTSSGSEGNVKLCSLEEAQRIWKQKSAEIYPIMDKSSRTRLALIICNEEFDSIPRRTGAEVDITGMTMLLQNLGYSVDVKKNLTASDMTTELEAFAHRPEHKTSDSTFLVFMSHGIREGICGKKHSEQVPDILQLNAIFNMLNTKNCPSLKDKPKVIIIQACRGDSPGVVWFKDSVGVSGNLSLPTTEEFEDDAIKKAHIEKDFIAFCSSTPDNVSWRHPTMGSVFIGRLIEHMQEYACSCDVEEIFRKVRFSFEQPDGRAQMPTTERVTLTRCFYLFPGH
Kind of assay: Caspase 1/ICE activity in intact A549 cells (Ac-YVAD-AMC). Format: cell-based. Conditions: 50 ng/ml captopril. As to the method:
(§1) Caspase Assays. The enzymatic activities of Caspase 1/interleukin-1b-converting enzyme (ICE) and Caspase 3/CPP32/YAMA were determined in intact A549 cell cultures pre-incubated under conditions identical to those used for morphologic assays of apoptosis. After a 20 h incubation with antibodies and/or captopril, cells were trypsinized from the culture vessels and resuspended in serum-free culture medium containing anti-FAS antibodies and/or captopril at the same concentrations as during the preincubation. After one hour, fluorogenic peptide substrates specific to each enzyme were added separately to cuvettes containing cell suspension for measurement of total activity in intact cells. […] Production of fluorescent product over time was monitored in a spectrofluorometer at 380 nm excitation and 450 nm emission. […]
(§2) The same concentration of captopril also abrogated FAS-induced stimulation of Caspase 1 (ICE) (p<0.01 compared to control) and Caspase 3/CPP32/YAMA (p<0.01 compared to FASmAb treatment alone) activities. […] Cells were then analyzed in suspension culture for the activity of Caspase 1/ICE with peptide substrate Ac-YVAD-AMC or for activity of Caspase 3/CPP32/YAMA with peptide substrate Ac-DEVD-AMC as described above. […]

A further assay addresses T2, Caspase 3/CPP32/YAMA (Homo sapiens, UniProt P42574).
T2 construct: endogenous in cells; host or cells: A549 human lung epithelial cell line
T2 sequence (P42574 29-277): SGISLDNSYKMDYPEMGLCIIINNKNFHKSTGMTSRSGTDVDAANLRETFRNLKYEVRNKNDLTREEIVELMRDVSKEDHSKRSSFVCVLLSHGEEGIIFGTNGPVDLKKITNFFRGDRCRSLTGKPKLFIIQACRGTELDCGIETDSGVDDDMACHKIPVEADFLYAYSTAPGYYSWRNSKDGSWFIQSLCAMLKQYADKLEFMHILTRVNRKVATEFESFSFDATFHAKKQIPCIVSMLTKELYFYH
Briefly: Caspase 3/CPP32/YAMA activity in intact A549 cells (Ac-DEVD-AMC). Format: cell-based. Conditions: 50 ng/ml captopril. As to the method: as §1, §2

With `C[C@H](CS)C(=O)N1CCC[C@H]1C(=O)O` [captopril], on Caspase 1/ICE, the “effect on FAS-inducible Caspase 1 activity” value is recorded as “completely abrogated”. Also, the “effect on FAS-inducible Caspase 3 activity” value at Caspase 3/CPP32/YAMA is given as “significantly decreased; also recorded: abrogated”.
